Literature values as cited in PMC9920808, “Impact of the Substitution Pattern at the Basic Center and Geometry of the Amine Fragment on 5-HT6 and D3R Affinity in the 1H-Pyrrolo[3,2-c]quinoline Series” (Molecules, 2023).

Key:
5-HT6R = details: Figure 1; ref 25 (SB737050), ref 19 (I), ref 26 (PZ-1643), ref 27 (CPPQ); cited from earlier work
human 5-HT6R = biological target: T1, human 5-HT6R (Homo sapiens, UniProt P50406); set-up: method as in PMID 30896921; details: HEK293 cells, data taken from ref 26; cited from earlier work
T1 construct: expressed in transfected cells
T1 sequence (P50406 whole entry): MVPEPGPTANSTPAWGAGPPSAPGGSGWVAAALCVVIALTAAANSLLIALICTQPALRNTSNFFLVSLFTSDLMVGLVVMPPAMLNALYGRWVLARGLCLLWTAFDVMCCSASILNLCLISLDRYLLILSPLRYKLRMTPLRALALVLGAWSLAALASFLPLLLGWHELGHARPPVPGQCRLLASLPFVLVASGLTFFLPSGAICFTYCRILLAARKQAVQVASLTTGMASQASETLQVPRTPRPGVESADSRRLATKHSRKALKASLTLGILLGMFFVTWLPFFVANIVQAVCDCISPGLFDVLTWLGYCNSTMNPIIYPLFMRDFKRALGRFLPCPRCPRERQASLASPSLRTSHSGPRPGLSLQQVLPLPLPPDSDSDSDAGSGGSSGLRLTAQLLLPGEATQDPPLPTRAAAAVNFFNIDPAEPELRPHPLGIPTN

D3R = biological target: D3R; set-up: method as in earlier work; details: Figure 1; ref 25 (SB737050), ref 19 (I), ref 26 (PZ-1643); cited from earlier work
human D3R = human D3R (Homo sapiens, UniProt P35462); set-up: method as in PMID 30896921; details: data taken from ref 26, cited from earlier work
human D3R, sequence (P35462 whole entry): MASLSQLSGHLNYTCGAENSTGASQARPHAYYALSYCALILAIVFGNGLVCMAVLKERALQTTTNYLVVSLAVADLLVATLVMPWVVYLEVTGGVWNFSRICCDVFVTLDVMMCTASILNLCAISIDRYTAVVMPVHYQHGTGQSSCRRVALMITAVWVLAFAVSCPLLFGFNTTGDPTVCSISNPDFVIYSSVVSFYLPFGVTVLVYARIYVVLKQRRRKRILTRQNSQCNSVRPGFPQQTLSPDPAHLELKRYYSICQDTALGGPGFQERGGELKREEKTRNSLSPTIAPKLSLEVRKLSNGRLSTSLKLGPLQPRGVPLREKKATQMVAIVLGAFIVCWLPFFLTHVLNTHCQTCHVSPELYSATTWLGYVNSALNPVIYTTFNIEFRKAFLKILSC

D2R = details: Figure 1; ref 25 (SB737050), ref 19 (I), ref 26 (PZ-1643), ref 27 (CPPQ); cited from earlier work

For `CC(C)CN1CC[C@H](Nc2nc3ccccc3c3c2ccn3S(=O)(=O)c2cccc(Cl)c2)C1` [PZ-1643], the “pKi 5-HT6R” value (5-HT6R) is given as 7.6, the Ki (human 5-HT6R) is given as 27 nM and the “pKi D3R” value (D3R) is given as 8.2. For the same molecule, the “%inh Binding to D3R @1μM” value (human D3R; percentage displacement at 10^-6 M) was 98%, the Ki (human D3R; printed in parentheses after %inh, read-out: D3R affinity value in parentheses (Ki)) was 7 nM and the “pKi D2R” value (D2R) was 6.5.
